Values of other authors as cited in patent US20220370561A1, “LITHIUM AS A MONOTHERAPY AND/OR STEM CELL ADJUVANT THERAPY FOR PULMONARY FIBROSIS” (Therapeutic Solutions International, Inc., priority 2021, published 2022).
Where two headings read alike, the source gives them in different places.

How the values were obtained:
[1] = danazol orally 800 mg per day
p16/p21 pathway = conditions: in vitro pre-mature senescence model
mesenchymal stem cells = conditions: culture of cells with valproic acid
[2] = 12 months, exploratory analysis

| Compound | mean increase in telomere length (telomere length; 6 months, exploratory analysis) | patients with increase in telomere length (telomere length; 6 months, exploratory analysis) | mean increase in telomere length (telomere length; [2]) | patients with increase in telomere length (telomere length; [2]) | mean increase in telomere length (telomere length; 24 months compared with baseline) | patients with a gain in telomere length compared with baseline (telomere length; 24 months, 11 of 12) | telomere attrition in patients evaluable for the primary end point (telomere length; danazol orally 800 mg per day, 24 months) | patients meeting the primary efficacy end point (20% reduction in annual rate of telomere attrition), intention-to-treat (telomere length; danazol orally 800 mg per day, 24 months, 12 of 27 patients) | hematologic responses (3 months, 19 of 24 evaluable patients) | hematologic responses (24 months, 10 of 12 evaluable patients) | elevated liver-enzyme levels of grade 2 or less, patients [1] | muscle cramps of grade 2 or less, patients [1] | G2/M phase blockage derived from the senescence stress (p16/p21 pathway) | cell proliferation (p16/p21 pathway) | apoptosis (p16/p21 pathway; through suppression of the p16/p21 pathway) | immune regulatory and metabolic properties of mesenchymal stem cells (mesenchymal stem cells) |
| --- | --- | --- | --- | --- | --- | --- | --- | --- | --- | --- | --- | --- | --- | --- | --- | --- |
| C#C[C@]1(O)CC[C@H]2[C@@H]3CCC4=Cc5oncc5C[C@]4(C)[C@H]3CC[C@@]21C [danazol] | 175 bp | 16 of 21 | 360 bp | 16 of 18 | 386 bp | 92% | reduced in all 12 patients | 44% | 79% | 83% | 41% | 33% | – | – | – | – |
| CCCC(CCC)C(=O)O [valproic acid] | – | – | – | – | – | – | – | – | – | – | – | – | inhibited the G2/M phase blockage | increased cell proliferation | inhibited apoptosis | enhanced |
